Twelve compounds from PubChem BioAssay (NCI) can be followed below.

Holding throughout (test): NCI-60 cell line screen, 48 h
The subject of assay [1] is HCT-15 colon.
The test system of assay [2] is IGROV1 ovarian.
The subject of assay [3] is LOX IMVI melanoma.
The test system of assay [4] is MOLT-4 leukemia.
The subject of assay [5] is OVCAR-4 ovarian.
In assay [6] the test system is SN12C renal.
Assay [7] relates to SW-620 colon.
Assay [8] deals with UACC-62 melanoma.
The subject of assay [9] is SK-MEL-2 melanoma.
Assay [10] concerns NCI-H226 lung.

Each structure is given as a SMILES string.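 Five concentrations, 48 hours, 96-well plates. GI50 marks 50% less growth. Definition used: TGI = concentration required for complete inhibition of growth.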

For `CCOC(=O)NC(=O)c1cn(CCCCCCCCCCC(=O)N2CCN(CCn3cc(C(=O)NC(=O)OCC)c(=O)[nH]c3=O)CC2)c(=O)[nH]c1=O`, the TGI in assay [1], in assay [2], in assay [3], in [4], in assay [5] and in [6] was over 100 µM throughout. In addition, the TGI in assay [7] and in assay [8] was over 100 µM throughout.

Take `CCOC(=O)/C(=C/c1cc(OC)ccc1OC)CC(=O)O`: the TGI was over 62.7 µM in assay [1]; over 100 µM in assay [2]; over 100 µM in assay [3]; over 31.6 µM in assay [4]; over 100 µM in assay [5]; 34.5 µM in [9]. Besides, the TGI in assay [6], in [7] and in assay [8] was over 100 µM throughout.

In the case of `COc1cc(-c2nn(C)nc2-c2cc3ccccc3s2)cc(OC)c1OC`, the GI50 was 0.0587 µM in assay [1]; 0.707 µM in assay [2]; 0.169 µM in assay [3]; 0.333 µM in [4]; over 100 µM in assay [10]; 0.0597 µM in assay [9]. Besides, the GI50 is 0.0633 µM in [7] and 0.0538 µM in [8]. In addition, the TGI was over 100 µM in assay [1]; over 100 µM in [2]; over 100 µM in assay [3]; over 100 µM in [4]; over 100 µM in assay [10]; 21.2 µM in assay [9]. In addition, the TGI in [7] and in assay [8] was over 100 µM throughout.

Take `NCC(=O)Nc1ccc(-n2nc(C(F)(F)F)cc2-c2ccc3c(ccc4ccccc43)c2)cc1`: the GI50 is 0.142 µM in [1]; 0.809 µM in assay [4]; 2.15 µM in assay [10]; 1.82 µM in assay [9]; 1.65 µM in assay [6]; 0.835 µM in assay [7]. Moreover, the TGI in [1] worked out at 1.71 µM; in assay [4], 4.01 µM; in assay [10], 6.35 µM; in assay [9] it was 3.48 µM; in assay [6] it was 3.4 µM; in [7], 2.16 µM.

For `CCCCN(CCCC)c1cc(C(=O)CCCCCN)c2ccccc2n1`, the GI50 in [3] was 1.69 µM; in assay [4], 2.54 µM; in assay [9], 2.56 µM; in [6] it was 1.63 µM; in [8], 1.66 µM. The TGI is 3.13 µM in assay [3]; 5.47 µM in [4]; 4.45 µM in [9]; 3.07 µM in [6]; 3.07 µM in [8].

As for `CC1=C(C)C(=O)c2c(cc3c4ccccc4ccn23)C1=O`, the TGI in [1], in [2], in assay [3], in [4], in [10] and in [9] was over 100 µM in each case. For the same compound, the TGI in [6], in assay [7] and in assay [8] was over 100 µM throughout.

For `O=C(/C=C/c1ccccc1O)c1ccccc1`, the GI50 in assay [1] was 10.6 µM; in assay [2], 1.56 µM; in assay [3] it was 2.09 µM; in [4], 2.78 µM; in assay [10], 12.8 µM; in assay [6], 12.9 µM. In addition, the values for the GI50 in assay [7] and in [8] were 1.8 µM and 13.1 µM, respectively. Further, the TGI in assay [1] came out at 24.7 µM; in assay [2], 4.12 µM; in assay [3] it was 5.11 µM; in [4], 14.3 µM; in assay [10], 26.1 µM; in assay [6], 28.7 µM. Besides, the figures for the TGI in assay [7] and in assay [8] were 3.72 µM and 25.9 µM, respectively.

As for `C=CCOC1=C2CC[C@H](O)[C@@]2(C)CCC1=O`, the TGI in [1], in assay [2], in assay [3], in assay [4], in assay [10] and in assay [5] was over 100 µM in each case. Moreover, the TGI in assay [6], in assay [7] and in [8] was over 100 µM each time.

`COC1OC(COCc2ccc(Cl)cc2)C(OCc2ccc(Cl)cc2)C1O` (configuration not stated): the TGI was 32.3 µM in [1]; 50.9 µM in assay [2]; 32.8 µM in assay [3]; 66.6 µM in assay [4]; over 100 µM in assay [5]; 30.6 µM in assay [9]. Further, the figures for the TGI in assay [6], in assay [7] and in [8] were 31.8 µM, 29.6 µM and 31.9 µM, respectively.

For `O=C(Nc1cccc(-n2cc(-c3ccncc3)c(-c3cc(O)cc(Cl)c3)n2)c1)Nc1ccc(Cl)c(Cl)c1`, the GI50 in [1] is 2.1 µM; in assay [2] it was 2.86 µM; in assay [4], 1.43 µM; in [10], 2.28 µM; in assay [9], 1.8 µM; in assay [6] it was 2.78 µM. The GI50 in assay [7] was 3.22 µM; in [8], 1.69 µM. In addition, the TGI in [1] is 8.04 µM; in [2], 9.23 µM; in assay [4], 5.16 µM; in assay [10], 7.16 µM; in assay [9], 4.04 µM; in assay [6] it was 18.1 µM. Besides, the TGI in assay [7] was 9.97 µM; in [8], 3.76 µM.

Consider `O=C(CC(=O)C(=O)CC(=O)OCc1ccccc1)OCc1ccccc1`, for which the TGI in [1], in assay [2], in [4], in assay [5], in assay [9] and in assay [6] was over 100 µM in each case. The TGI in assay [7] and in [8] was over 100 µM in each case.

As for `CC(C)CC(=O)N1CCN(C(=O)CC(C)C)c2ccccc21`, the TGI in assay [2], in assay [3], in assay [4], in assay [9] and in assay [7] was over 100 µM in each case.
